Results taken from US7244754B2, “2-methylthiazolidine-2,4-dicarboxylic acid and salts thereof for treatment of neurodegenerative diseases” (priority 2002, dated 2007).

What was measured:
MNRI mice = test: Apoplexy model: occlusion of the middle cerebral artery in mice, infarction surface by neutral red staining; assay type: in vivo; conditions: application after or before occlusion, as in examples 3 and 4
From the text: In another animal experiment model (apoplexy model) it could be shown (examples 3 and 4) that 2-MTDC as well as salts of 2-MTDC have a cerebroprotective effect.
The following test series deals with the examination of the neuroprotective effect of 2-MTDC-Na in application of 2-MTDC-Na after the ischemia.
Per test group 13 through 16 MNRI mice were employed. The middle cerebral artery of the mice was occluded according to the method of Welsh (F. A. Welsh, T. Sakamoto, A. E. McKee, R. E. Sims, J. Neurochem. 1987, 49, 846-851). For that purpose the mice are anesthetized with tribromoethanol (600 mg/kg body weight, intraperitoneally). Immediately after the anesthesia a small cavity was drilled into the mice cranium to lay open the middle cerebral artery. The strain as well as both arms of the middle cerebral artery were occluded via electro coagulation. Meanwhile the blood heat of the mice was kept on 37° C.±1° C. by utilizing a heating lamp. Subsequently the mice were kept at a surrounding temperature of 30° C. for another 2 h.
One group of mice was injected intraperitoneally 2-MTDC-Na (200 mg/kg 2-MTDC-Na dissolved in 0.9% NaCl solution) 15 minutes after and another group 60 minutes after the occlusion of the middle cerebral artery. A third group received the vehicle only (0.9% NaCl solution without 2-MTDC-Na).
For the following histologic examination 2 days after the occlusion of the middle cerebral artery the mice were anesthetized again with tribromoethanol and received intraperitoneally applied 0.5 ml of a 1.5% solution of neutral red (toluylene red, Acros Chimica) in addition. The brains were extracted and kept for 24 h in a fixative solution (4% formalin with phosphate buffer at pH 7.4).
The tissue on the surface of the brain which was not colored by neutral red was measured as surface region affected by infarction under utilizing a color analysis system (Kontron, Eching, Germany) (C. Backhauβ, C. Karkoutly, M. Welsh, J. Krieglstein, J. Pharmacol Toxicol Methods, 1992, 27 (2), 27-32).
The execution of the test according to example 3 was repeated whereas 2-MTDC-Na was applied one hour before the occlusion of the middle cerebral artery (MCA-O: occlusion of the middle cerebral artery).

dopaminergic neurons = test: Intrastriatal sodium malonate lesion in rats; transmitters and metabolites in striatum and substantia nigra by HPLC; assay type: in vivo, Wistar rats; conditions: for activity of dopaminergic neurons (3-methoxytyramine concentration): lysine salt injected intraperitoneally four to five days before measuring, rats
striatum of rats = conditions: seven days after injecting the malonate; cited from earlier work

With `CC1(C(=O)O)N[C@H](C(=O)O)CS1` (mixture of isomers) [2-MTDC, (2RS,4R)-2-methylthiazolidine-2,4-dicarboxylic acid] the “infarction extent induced by occlusion of the cerebral artery (test series of examples 3 and 4)” value (shortened to “infarction extent induced by occlusion”) (MNRI mice) was “capable of reducing the infarction extent”.
In the case of `CC1(C(=O)O)NC(C(=O)O)CS1.NCCCCC(N)C(=O)O.NCCCCC(N)C(=O)O` (centres unmarked) [2-MTDC-lys], the “infarction extent induced by occlusion” value (MNRI mice; listed as lysine salts of 2-MTDC) is reported as “capable of reducing the infarction extent”, the “influence on the concentration of dopamine, DOPAC, HVA” value (dopaminergic neurons; 2-MTDC-lys solely (no malonate), 2x0.8 mmol/kg i.p., four days after last application) is reported as “no influence” and the “effect on dopaminergic versus serotonergic neurons (5-HT, 5-HIAA)” value (dopaminergic neurons; chosen dose rate, examination period of four days from last application) is reported as “affects obviously dopaminergic neurons but not serotonergic neurons”. The “activity of dopaminergic neurons (3-methoxytyramine concentration)” value (dopaminergic neurons) was “long persistent activation”, the “activity of dopaminergic neurons (3-methoxytyramine concentration)” value (dopaminergic neurons; listed as lysine salt of 2-MTDC) was “intense activation of the dopaminergic neurons” and the “effect of malonate on the reduction of dopamine and dopamine metabolite concentrations (neuroprotection)” value (dopaminergic neurons; pretreatment 2x0.8 mmol/kg i.p., 2 μmol sodium malonate into left striatum, four days after last application) was “prevents the toxic effect of malonate”. The “neurodegeneration of nerve ends in the striatum and cell bodies in the substantia nigra” value (dopaminergic neurons; treatment before malonate (prophylactic)) was “prevents the neurodegeneration”.
With `C[C@@]1(C(=O)O)N[C@H](C(=O)O)CS1` [(2R,4R)-2-methylthiazolidine-2,4-dicarboxylic acid] the “infarction extent induced by occlusion” value (MNRI mice) was “capable of reducing the infarction extent”.
In the case of `C[C@]1(C(=O)O)N[C@H](C(=O)O)CS1` [(2S,4R)-2-methylthiazolidine-2,4-dicarboxylic acid], the “infarction extent induced by occlusion” value (MNRI mice) is reported as “capable of reducing the infarction extent”.
For `O=C([O-])CC(=O)[O-].[Na+].[Na+]` [malonate, sodium malonate], the “concentration of dopamine in the striatum compared to the contralateral striatum” value (striatum of rats) is listed as 6%.
